In US4080460A, “Biguanides and therapeutic compositions and uses of the same” (Aron Sarl, priority 1975, dated 1978):
Counter-ions that a name gives are not always drawn. Like-named read-outs stand apart in the source and are kept apart here.

Columns and labels:
Doca rats = assay: action on the control of blood pressure in Doca rats; format: in vivo, rat; details: oral, 2 × 3 mg/kg
Description: (§1) The above results are confirmed by the results of an investigation of the action on the control of blood pressure. On oral administration of a dosage of 2 × 3 mg/kg of compound to Doca rats (Technique according to Green and co-workers, Am. J. Physiol, 1952, 170, p.94) and to Grollman rats (Techniques according to Grollman, Proc. Soc. Exp. Biol. Med., 1944, 57, p.102), the precent decrease of the systolic blood pressure with respect to its original value is noted.

[1] = test system: uptake of ^3 H noradrenalin by the synaptosomes of a rat hypothalamus homogenate; assay: inhibition of the uptake of ^3 H noradrenalin by the synaptosomes of a rat hypothalamus homogenate; format: biochemical; details: with respect to the control test
Description: The compounds of the formula (I) are capable of modifying the accumulation of noradrenalin and particularly to inhibit the uptake of ^3 H noradrenalin by the synaptosomes of a rat hypothalamus homogenate prepared according to Banerjee, Snyder and Mechoulam (J. Pharmacol. Exp. Ther., 194, 1, 74, 1975). This inhibition of the uptake of ^3 H noradrenaline is a known property of various compounds having an activity on the central nervous system and/or on the sympathetic nervous system, particularly a hypotensive effect (J. Glowinski and J. Axelrod, Effects of Drugs on the Disposition of ^3 H norepinephrine in the Rat Brain, Pharmacological Reviews, Vol. 18, n°1, Part I, 1966).
They are expressed as percent inhibition of the uptake with respect to the control test.

[2] = acute toxicity investigation in mice; details: mouse, in vivo
Grollman rats = assay: action on the control of blood pressure in Grollman rats; format: in vivo, rat; details: oral, 2 × 3 mg/kg
Description: as §1

[3] = 5 × 10^-4 M ultimate concentration
[4] = iv, read-out: LD50 (mg/kg) i.v.
[5] = po, read-out: LD50 (mg/kg) p.o.
[6] = 5 × 10^-5 M ultimate concentration
[7] = 5 × 10^-6 M ultimate concentration

Cc1conc1NC(=N)NC(=N)N(C)C [Example 11]
percent decrease of the systolic blood pressure with respect to its original value (Doca rats): 15%
inhibition % of the uptake of ^3 H noradrenalin [1, 3]: 60.1%
LD50 [2, 4]: 40 mg/kg
LD50 [2, 5]: 300 mg/kg

Cc1cc(NC(=N)NC(=N)N2CCOCC2)no1 [Example 20]
inhibition % of the uptake of ^3 H noradrenalin [1, 3]: 46.6%
LD50 [2, 4]: 100 mg/kg
LD50 [2, 5]: 750 mg/kg

Cc1cc(NC(=N)NC(=N)N2CCN(C)CC2)no1 [Example 19]
percent decrease of the systolic blood pressure with respect to its original value (Grollman rats): 20%
inhibition % of the uptake of ^3 H noradrenalin [1, 3]: 53.8%
LD50 [2, 4]: 100 mg/kg
LD50 [2, 5]: 2000 mg/kg

CCCCNC(=N)NC(=N)Nc1cc(C)on1 [Example 13]
inhibition % of the uptake of ^3 H noradrenalin [1, 3]: 63.1%
LD50 [2, 4]: 35 mg/kg
LD50 [2, 5]: 250 mg/kg

CC(C)c1cc(NC(=N)NC(=N)N)no1 [Example 6]
inhibition % of the uptake of ^3 H noradrenalin [1, 6]: 54.6%
LD50 [2, 5]: 200 mg/kg

CNC(=N)NC(=N)Nc1cc(C)on1 [Example 2, 1-methyl-5-(5-methyl-isoxazol-3-yl)biguanide]
inhibition % of the uptake of ^3 H noradrenalin [1, 3]: 53.6%
LD50 [2, 5]: 900 mg/kg

Cc1conc1NC(=N)NC(=N)N [Example 8]
percent decrease of the systolic blood pressure with respect to its original value (Doca rats): 15%
percent decrease of the systolic blood pressure with respect to its original value (Grollman rats): 15%
inhibition % of the uptake of ^3 H noradrenalin [1, 6]: 55%
inhibition % of the uptake of ^3 H noradrenalin [1, 7]: 36%
LD50 [2, 4]: 70 mg/kg
LD50 [2, 5]: 300 mg/kg

Cc1onc(N(C)C(=N)NC(=N)N)c1C [Example 10]
inhibition % of the uptake of ^3 H noradrenalin [1, 3]: 19.5%
LD50 [2, 4]: 100 mg/kg
LD50 [2, 5]: > 500 mg/kg

CCCCc1cc(NC(=N)NC(=N)N)no1 [Example 5]
percent decrease of the systolic blood pressure with respect to its original value (Doca rats): 10%
inhibition % of the uptake of ^3 H noradrenalin [1, 3]: 69.5%
LD50 [2, 5]: 600 mg/kg

CCc1conc1NC(=N)NC(=N)N [Example 14]
inhibition % of the uptake of ^3 H noradrenalin [1, 6]: 61.8%
inhibition % of the uptake of ^3 H noradrenalin [1, 7]: 46.5%
LD50 [2, 5]: 500 mg/kg

CCc1cc(NC(=N)NC(=N)N)no1 [Example 4]
inhibition % of the uptake of ^3 H noradrenalin [1, 3]: 52.7%
LD50 [2, 4]: 45 mg/kg
LD50 [2, 5]: 500 mg/kg

CCN(C(=N)NC(=N)N)c1cc(C)on1 [Example 16]
inhibition % of the uptake of ^3 H noradrenalin [1, 3]: 37.9%
LD50 [2, 5]: > 750 mg/kg

Cc1cc(N(C)C(=N)NC(=N)N)no1 [Example 7]
percent decrease of the systolic blood pressure with respect to its original value (Doca rats): 15%
inhibition % of the uptake of ^3 H noradrenalin [1, 3]: 48.1%

Cc1cc(NC(=N)NC(=N)N(C)C)no1 [Example 3]
percent decrease of the systolic blood pressure with respect to its original value (Grollman rats): 10%
inhibition % of the uptake of ^3 H noradrenalin [1, 3]: 47.9%
LD50 [2, 4]: 140 mg/kg
LD50 [2, 5]: 800 mg/kg

N=C(N)NC(=N)Nc1ccon1 [Example 9]
inhibition % of the uptake of ^3 H noradrenalin [1, 3]: 68.6%
LD50 [2, 4]: > 150 mg/kg
LD50 [2, 5]: > 1000 mg/kg

Cc1noc(NC(=N)NC(=N)N(C)C)c1C [Example 22]
inhibition % of the uptake of ^3 H noradrenalin [1, 3]: 38.1%
LD50 [2, 5]: 700 mg/kg

Cc1cc(NC(=N)NC(=N)N)no1 [Example 1, (5-methyl-isoxazol-3-yl)biguanide hydrochloride]
percent decrease of the systolic blood pressure with respect to its original value (Doca rats): 25%
percent decrease of the systolic blood pressure with respect to its original value (Grollman rats): 20%
LD50 [2, 4]: 115 mg/kg
LD50 [2, 5]: 700 mg/kg
